Values after ≈ are worked out from the molar mass of the structure shown.
Columns and labels:
Salmonella enterica [1] = experiment: Antibacterial activity against Salmonella enterica 8389 assessed as inhibition of bacterial growth incubated for 16 to 20 hrs by CLSI based microdilution method; format: functional; conditions: time 16-20 hrs
[2] = Selectivity index, ratio of HC50 for hemolytic activity in sheep RBC to MIC for antibacterial activity against Staphylococcus aureus ATCC 29213; format: toxicity; conditions: sheep red blood cells
Staphylococcus aureus = experiment: Antibacterial activity against Staphylococcus aureus ATCC 29213 assessed as inhibition of bacterial growth incubated for 16 to 20 hrs by CLSI based microdilution method; format: functional; conditions: time 16-20 hrs
Enterococcus faecalis = experiment: Antibacterial activity against Enterococcus faecalis ATCC 29212 assessed as inhibition of bacterial growth incubated for 16 to 20 hrs by CLSI based microdilution method; format: functional; conditions: time 16-20 hrs
Salmonella enterica [3] = experiment: Antibacterial activity against Salmonella enterica H9812 assessed as inhibition of bacterial growth incubated for 16 to 20 hrs by CLSI based microdilution method; format: functional; conditions: time 16-20 hrs
[4] = Hemolytic activity in sheep RBC incubated for 1 hr by absorbance based analysis; format: toxicity, cell-based, Ovis aries, Erythrocyte; conditions: sheep red blood cells
Escherichia coli = experiment: Antibacterial activity against Escherichia coli ATCC 25922 assessed as inhibition of bacterial growth incubated for 16 to 20 hrs by CLSI based microdilution method; format: functional; conditions: time 16-20 hrs
Micrococcus luteus = experiment: Antibacterial activity against Micrococcus luteus assessed as inhibition of bacterial growth incubated for 16 to 20 hrs by CLSI based microdilution method; format: functional; conditions: time 16-20 hrs

Compound	MIC (Salmonella enterica [1])	selectivity ratio [2]	MIC (Staphylococcus aureus)	MIC (Enterococcus faecalis)	MIC (Salmonella enterica [3])	HC50 at 1 h [4]	MIC (Escherichia coli)	MIC (Micrococcus luteus)
C=CCc1cccc(Oc2ccc(C(=O)CC)cc2)c1OCCCC[N+](C)(C)CC(=O)N(CC)CC.[Br-]	> 128 µg/mL	> 40	32 µg/mL	32 µg/mL	> 128 µg/mL	> 1280 µg/mL	64 µg/mL	64 µg/mL
C=CCc1cccc(Oc2ccc(C(=O)CC)cc2)c1OCCC[N+](C)(C)CC(=O)N1CCOCC1.[Br-]	> 128 µg/mL	21.1	32 µg/mL	64 µg/mL	64 µg/mL	674 µg/mL	> 128 µg/mL	64 µg/mL
C=CCc1cccc(Oc2ccc(C(=O)CC)cc2)c1OCC[N+](C)(C)CC(=O)NCCCC.[Br-]	128 µg/mL	35.9	32 µg/mL	64 µg/mL	64 µg/mL	1150 µg/mL	64 µg/mL	64 µg/mL
Br.C=CCc1cccc(Oc2ccc(C(=O)CC)cc2)c1OCCSC(=N)N	64 µg/mL	24.6	32 µg/mL	64 µg/mL	128 µg/mL	789 µg/mL	64 µg/mL	64 µg/mL
C=CCc1cccc(Oc2ccc(C(=O)CC)cc2)c1OCC[N+](C)(C)CC(=O)N(CCCC)CCCC.[Br-]	128 µg/mL	104	8 µg/mL	8 µg/mL	128 µg/mL	834 µg/mL	64 µg/mL	32 µg/mL
C=CCc1cccc(Oc2ccc(C(=O)CC)cc2)c1OCCCC[N+](C)(C)CC(=O)NCCCCC.[Br-]	64 µg/mL	141	4 µg/mL	8 µg/mL	128 µg/mL	564 µg/mL	32 µg/mL	16 µg/mL
C=CCc1cccc(Oc2ccc(C(=O)CC)cc2)c1OCCC[N+](C)(C)CC(=O)N(CCCC)CCCC.[Br-]	128 µg/mL	194	4 µg/mL	16 µg/mL	128 µg/mL	776 µg/mL	64 µg/mL	16 µg/mL
C=CCc1cccc(Oc2ccc(C(=O)CC)cc2)c1OCC[N+](C)(C)CC(=O)N1CCCC1.[Br-]	> 128 µg/mL	17	32 µg/mL	64 µg/mL	64 µg/mL	543 µg/mL	128 µg/mL	32 µg/mL
C=CCc1cccc(Oc2ccc(C(=O)CC)cc2)c1OCCCC[N+](C)(C)CC(=O)NCC.[Br-]	32 µg/mL	12.2	64 µg/mL	128 µg/mL	64 µg/mL	785 µg/mL	64 µg/mL	128 µg/mL
C=CCc1cccc(Oc2ccc(C(=O)CC)cc2)c1OCC[N+](C)(C)CC(=O)NCC.[Br-]	128 µg/mL	15.9	32 µg/mL	32 µg/mL	128 µg/mL	509 µg/mL	64 µg/mL	32 µg/mL
C[C@@H](O)[C@H]1C(=O)N2C(C(=O)O)=C(S[C@@H]3CN[C@H](C(=O)N(C)C)C3)[C@H](C)[C@H]12 [MEROPENEM]	0.125 µg/mL (≈ 0.326 µM)	–	–	–	0.125 µg/mL (≈ 0.326 µM)	–	0.125 µg/mL (≈ 0.326 µM)	–
C=CCc1cccc(Oc2ccc(C(=O)CC)cc2)c1OCC[N+](C)(C)CC(=O)N(CCC)CCC.[Br-]	32 µg/mL	138	8 µg/mL	16 µg/mL	64 µg/mL	1110 µg/mL	64 µg/mL	16 µg/mL
CCCCCCNC(=O)C[N+](C)(C)CCCOc1ccccc1Oc1ccc(C(=O)CC)cc1.[Br-]	–	134	4 µg/mL	–	–	536 µg/mL	> 128 µg/mL	–
CCCCCCNC(=O)C[N+](C)(C)CCOc1ccccc1Oc1ccc(C(=O)CC)cc1.[Br-]	–	57.4	16 µg/mL	–	–	918 µg/mL	> 128 µg/mL	–

From ChEMBL document CHEMBL5236634, “Membrane-Targeting Neolignan-Antimicrobial Peptide Mimic Conjugates to Combat Methicillin-Resistant Staphylococcus aureus (MRSA) Infections” (J Med Chem, 2022)
